This is an account of results in patent publication US6569878B1, “Substituted 4-amino-thiazol-2-yl compounds as cyclin-dependent kinase inhibitors” (Agouron Pharmaceuticals Inc., priority 1997, dated 2003).

Read-outs that look alike come from different tables or passages of the source.

Assay [1] concerns the target T1, complex of human CDK4 and cyclin D3 (Homo sapiens, UniProt P11802).
T1 construct: made in house; host or cells: insect cells, co-infected with baculovirus
Put plainly: Inhibition of CDK4/cyclin D retinoblastoma kinase activity (D-type cyclin is D3). The class given is biochemical. The conditions noted are these: superscript a: D-type cyclin is D3, read-out: Ki CDK 4/D. How it is done:
Cyclin-dependent kinase activity was measured by quantifying the enzyme-catalyzed, time-dependent incorporation of radioactive phosphate from [^32P]ATP or [^33P]ATP into a protein substrate. […] Reactions were initiated with enzyme, incubated at 30° C., and terminated after 20 minutes by the addition of ethylenediaminetetraacetic acid (EDTA) to 250 mM. […] Radioactivity was quantified by exposing the dried membranes to a phosphorimager.
(§1) Apparent Ki values were measured by assaying enzyme activity in the presence of different inhibitor compound concentrations and subtracting the background radioactivity measured in the absence of enzyme. The kinetic parameters (kcat, Km for ATP) were measured for each enzyme under the usual assay conditions by determining the dependence of initial rates on ATP concentration. Inhibition data were fit to an equation for competitive inhibition using Kaleidagraph (Synergy Software), or were fit to an equation for competitive tight-binding inhibition using the software KineTic (BioKin, Ltd.).
Phosphorylated Rb substrate was captured by microfiltration on a nitrocellulose membrane and quantified using a phosphorimager as described above. For measurement of tight-binding inhibitors, the enzyme complex concentration was lowered to 5 nM, and the assay duration was extended to 60 minutes, during which the time-dependence of product formation was linear.

Another assay has as its target T2, CDK2/cyclin A (Homo sapiens, UniProt P24941).
T2 construct: made in house; host or cells: CDK2: insect cells (baculovirus); cyclin A: E. coli, then limited proteolysis
In words: Inhibition of CDK2/cyclin A retinoblastoma kinase activity. The assay is classed as biochemical. The conditions noted are these: read-out: Ki CDK 2/A. How it is done: Cyclin-dependent kinase activity was measured by quantifying the enzyme-catalyzed, time-dependent incorporation of radioactive phosphate from [^32P]ATP or [^33P]ATP into a protein substrate. Unless noted otherwise, assays were performed in 96-well plates in a total volume of 50 μL, in the presence of 10 mM HEPES (N-[2-hydroxyethyl]piperazine-N′-[2-ethanesulfonic acid]) (pH 7.4), 10 mM MgCl2, 25 μM adenosine triphosphate (ATP), 1 mg/mL ovalbumin, 5 μg/mL leupeptin, 1 mM dithiothreitol, 10 mM β-glycerophosphate, 0.1 mM sodium vanadate, 1 mM sodium fluoride, 2.5 mM ethylene glycol-bis(β-aminoethyl ether)-N,N,N′N′-tetraacetic acid (EGTA), 2% (v/v) dimethylsulfoxide, and 0.03-0.4 μCi [^32/33P]ATP per reaction. Reactions were initiated with enzyme, incubated at 30° C., and terminated after 20 minutes by the addition of ethylenediaminetetraacetic acid (EDTA) to 250 mM. The phosphorylated substrate was then captured on a nitrocellulose or phosphocellulose membrane using a 96-well filtration manifold, and unincorporated radioactivity was removed by repeated washing with 0.85% phosphoric acid. Radioactivity was quantified by exposing the dried membranes to a phosphorimager.
as §1
CDK2 was purified using published methodology (Rosenblatt et al., “Purification and Crystallization of Human Cyclin-dependent Kinase 2,” J. Mol. Biol., vol. 230, 1993, pp. 1317-1319) from insect cells that had been infected with a baculovirus expression vector. […] Purified, proteolyzed cyclin A was included in the assay at a three- to five-fold molar excess to CDK2. Alternatively, a complex of CDK2 and proteolyzed cyclin A was prepared and purified by gel filtration. The substrate for this assay was the same Rb substrate fragment used for the CDK4 assays, and the methodology of the CDK2/cyclin A and the CDK4/cyclin D3 assays was essentially the same, except that CDK2 was present at 150 nM or 5 nM. Ki values were measured as described above.

T1 sequence (P11802 whole entry): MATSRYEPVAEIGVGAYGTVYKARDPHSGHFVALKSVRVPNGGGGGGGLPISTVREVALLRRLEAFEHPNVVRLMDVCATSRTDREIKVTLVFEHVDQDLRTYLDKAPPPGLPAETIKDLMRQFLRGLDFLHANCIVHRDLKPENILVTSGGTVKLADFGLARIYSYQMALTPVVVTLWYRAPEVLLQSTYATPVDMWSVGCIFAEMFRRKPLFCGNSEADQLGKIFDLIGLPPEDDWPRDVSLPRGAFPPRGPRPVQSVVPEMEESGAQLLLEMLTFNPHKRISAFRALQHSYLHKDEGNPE
T1 sequence (P30281 whole entry partner): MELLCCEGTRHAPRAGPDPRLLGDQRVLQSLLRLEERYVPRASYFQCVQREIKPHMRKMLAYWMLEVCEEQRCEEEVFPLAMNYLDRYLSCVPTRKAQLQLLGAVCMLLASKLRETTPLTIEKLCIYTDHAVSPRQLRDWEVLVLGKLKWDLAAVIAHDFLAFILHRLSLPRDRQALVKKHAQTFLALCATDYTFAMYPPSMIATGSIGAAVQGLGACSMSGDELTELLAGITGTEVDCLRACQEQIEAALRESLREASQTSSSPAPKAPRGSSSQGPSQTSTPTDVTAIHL

For `CCOC(=O)CC(C)Nc1nc(N)c(C(=O)c2sccc2C)s1` (racemic) [C(46), Ethyl 3RS-[4-Amino-5-(3-methyl-thiophene-2-carbonyl)-thiazol-2-ylamino]-butyrate], the results for the Ki (in assay [1] (apparent Ki); on CDK2/cyclin A) were 0.244 µM and 1.79 µM, respectively. Take `COC(=O)c1sc(Nc2ccc3nc[nH]c3c2)nc1N` [A(12), 4-Amino-2-(1H-benzoimidazol-6-ylamino)-thiazole-5-carboxylic Acid Methyl Ester]: the Ki in assay [1] (apparent Ki) turned out to be 9.4 µM; on CDK2/cyclin A it was 4.1 µM. For `COc1ccc(C(=O)c2sc(Nc3ccc(N(C)C)cc3)nc2N)cc1` [C(3), [4-Amino-2-(4-dimethylamino-phenylamino)-thiazol-5-yl]-(4-methoxy-phenyl)-methanone] the same measures were 1.2 µM and 4.7 µM. In the case of `COc1ccc(C(=O)c2sc(Nc3ccc(S(N)(=O)=O)cc3)nc2N)c(OC)c1` [C(33), 4-[4-Amino-5-(2,4-dimethoxy-benzoyl)-thiazol-2-ylamino]-benzenesulfonamide], the Ki was found to be 0.057 µM in assay [1] (apparent Ki) and 0.02 µM at CDK2/cyclin A. For the compound `CCOC(=O)c1ccc(C(=O)c2sc(Nc3ccc(S(N)(=O)=O)cc3)nc2N)cc1` [C(34), Ethyl 4-[4-Amino-2-(4-sulfamoyl-phenylamino)-thiazole-5-carbonyl]-benzoate], the Ki came out at 0.14 µM in assay [1] (apparent Ki) and 0.131 µM at CDK2/cyclin A. For `Cc1ccc(C(=O)c2sc(Nc3ccc(-n4ccnc4)cc3)nc2N)c(C)c1` [C(41), [4-Amino-2-(4-imidazol-1-yl-phenylamino)-thiazol-5-yl]-(2,4-dimethyl-phenyl)-methanone] the same measures were 0.35 µM and 0.336 µM.

With `Cc1ccsc1C(=O)c1sc(Nc2ccc(-n3ccnc3)cc2)nc1N` [C(42), [4-Amino-2-(4-imidazol-1-yl-phenylamino)-thiazol-5-yl]-(3-methyl-thiophen-2-yl)-methanone], the Ki in assay [1] (apparent Ki) turned out to be 0.75 µM; at CDK2/cyclin A, 0.207 µM.

As to `Nc1nc(Nc2ccc(S(N)(=O)=O)cc2)sc1C(=O)c1ccc2c(c1)CCC(=O)N2` [C(51), 4-[4-Amino-5-(2-oxo-1,2,3,4-tetrahydro-quinoline-6-carbonyl)-thiazol-2-ylamino]-benzenesulfonamide], the Ki is 0.085 µM in assay [1] (apparent Ki) and 0.0333 µM on CDK2/cyclin A. For `Nc1nc(Nc2ccc(-c3ncc[nH]3)cc2)sc1C(=O)c1c(Cl)cc(C(F)(F)F)cc1Cl` [C(53), {4-Amino-2-[4-(1H-imidazol-2-yl)-phenylamino]-thiazol-5-yl}-(2,6-dichloro-4-trifluoromethyl-phenyl)-methanone] the same measures were 0.085 µM and 0.18 µM. For the compound `Cc1ccc(C(=O)c2sc(Nc3ccc(N4CCOCC4)cc3)nc2N)c(C)c1` [C(54), [4-Amino-2-(4-morpholin-4-yl-phenylamino)-thiazol-5-yl]-(2,4-dimethyl-phenyl)-methanone], the Ki in assay [1] (apparent Ki) was 0.034 µM; on CDK2/cyclin A it was 0.453 µM. For `CCOC(=O)c1ccc(Nc2nc(N)c(C(=O)c3c(Cl)cccc3Cl)s2)cc1` [C(56), Ethyl 4-[4-Amino-5-(2,6-dichloro-benzoyl)-thiazol-2-ylamino]-benzoate], the Ki in assay [1] (apparent Ki) was 0.195 µM; at CDK2/cyclin A, 1.02 µM. For `Cc1cc(C)c(C(=O)c2sc(Nc3ccc4nc[nH]c4c3)nc2N)c(C)c1` [C(57), [4-Amino-2-(1H-benzoimidazol-6-ylamino)-thiazol-5-yl]-(2,4,6-trimethyl-phenyl)-methanone], in that order: 0.03 µM and 0.259 µM. Turning to `Cc1ccc(C)c(C(=O)c2sc(Nc3ccc4nc[nH]c4c3)nc2N)c1C` [C(58), [4-Amino-2-(1H-benzoimidazol-6-ylamino)-thiazol-5-yl]-(2,3,6-trimethyl-phenyl)-methanone], the Ki in assay [1] (apparent Ki) is 0.034 µM; on CDK2/cyclin A it was 0.306 µM. For `Cc1cncc(C)c1C(=O)c1sc(Nc2ccc(S(N)(=O)=O)cc2)nc1N` [C(59), [4-Amino-2-(4-sulfamoyl-phenylamino)-thiazol-5-yl]-(3,5-dimethyl-pyridin-4-yl)-methanone], in that order: 0.1 µM and 0.135 µM. For `Cc1cccc(C)c1C(=O)c1sc(Nc2ccc3nc[nH]c3c2)nc1N` [C(60), [4-Amino-2-(1H-benzoimidazol-6-ylamino)-thiazol-5-yl]-(2,6-dimethyl-phenyl)-methanone], the Ki was determined as 0.056 µM in assay [1] (apparent Ki) and 0.574 µM on CDK2/cyclin A. For `Cc1cccc([N+](=O)[O-])c1C(=O)c1sc(Nc2ccc3nc[nH]c3c2)nc1N` [C(61), [4-Amino-2-(1H-benzoimidazol-6-ylamino)-thiazol-5-yl]-(2-methyl-6-nitro-phenyl)-methanone], in that order: 0.12 µM and 1.2 µM. For `Cc1cccc(C)c1C(=O)c1sc(Nc2ccc(N3CCOCC3)cc2)nc1N` [C(62), [4-Amino-2-(4-morpholin-4-yl-phenylamino)-thiazol-5-yl]-(2,6-dimethyl-phenyl)-methanone] the same measures were 0.072 µM and 1.71 µM.

Regarding `Nc1nc(Nc2ccc3nc[nH]c3c2)sc1C(=O)[C@@H]1CCCN1C(=O)OCc1ccccc1` [C(64), 2S-[4-Amino-2-(1H-benzoimidazol-5-yl-amino)-thiazole-5-carbonyl]-N-carbobenzyloxy-pyrrolidine], the Ki in assay [1] (apparent Ki) is 44 µM; on CDK2/cyclin A (μM), 42 µM. In the case of `Nc1nc(Nc2ccc(S(N)(=O)=O)cc2)sc1C(=O)[C@@H]1CCCN1C(=O)OCc1ccccc1` [C(65), 2S-[4-Amino-2-(4-sulfamoyl-phenylamino)-thiazole-5-carbonyl]-N-carbobenzyloxy-pyrrolidine], the Ki in assay [1] (apparent Ki) came to 38 µM; on CDK2/cyclin A (μM) it was 14.3 µM.

Turning to `Cc1cccc(Br)c1C(=O)c1sc(Nc2ccc3nc[nH]c3c2)nc1N` [C(66), [4-Amino-2-(1H-benzoimidazol-6-ylamino)-thiazol-5-yl]-(2-bromo-6-methyl-phenyl)-methanone], the figures for the Ki (in assay [1] (apparent Ki); at CDK2/cyclin A) were 0.053 µM and 0.574 µM, respectively.

Regarding `Cc1cccc(-c2ccccc2)c1C(=O)c1sc(Nc2ccc3nc[nH]c3c2)nc1N` [C(67), [4-Amino-2-(1H-benzoimidazol-6-ylamino)-thiazol-5-yl]-(3-methyl-biphenyl-2-yl)-methanone], the figures for the Ki (in assay [1] (apparent Ki); at CDK2/cyclin A (μM)) were 3.17 µM and 13.2 µM, respectively. For the compound `Nc1nc(Nc2ccc3nc[nH]c3c2)sc1C(=O)c1sc(Br)cc1Br` [C(72), [4-Amino-2-(1H-benzoimidazol-6-ylamino)-thiazol-5-yl]-(3,5-dibromo-thiophen-2-yl)-methanone], the Ki came to 0.0135 µM in assay [1] (apparent Ki) and 0.169 µM at CDK2/cyclin A.

As for `Cc1c(C(=O)c2sc(Nc3ccc4nc[nH]c4c3)nc2N)ncn1C` [C(74), [4-Amino-2-(1H-benzoimidazol-6-ylamino)-thiazol2-5-yl]-(1,5-dimethyl-1H-imidazol-4-yl)-methanone], the Ki was found to be 4.8 µM in assay [1] (apparent Ki) and 10.6 µM at CDK2/cyclin A (μM). For the compound `COC(=O)c1cccc(Nc2nc(N)c(C(=O)c3ccc4ccccc4c3)s2)c1` [I(15)], the Ki in assay [1] (apparent Ki) turned out to be 0.44 µM. Take `COc1cc(C(=O)c2sc(Nc3ccccc3)nc2N)cc(OC)c1OC` [I(16)]: the Ki in assay [1] (apparent Ki) was 1.88 µM. Still for that read-out and setting: in the case of `COC(=O)c1cccc(C(=O)c2sc(Nc3cccc([N+](=O)[O-])c3)nc2N)c1` [I(17)] it was less than 1 µM. As for `COc1ccc(C(=O)Nc2nc(N)c(C(=O)c3ccccc3[N+](=O)[O-])s2)cc1` [I(18)], the Ki in assay [1] (μM) was more than 25 µM. Consider `Cc1ccc(Nc2nc(N)c(C(=O)c3ccccc3)s2)cc1` [I(23)], for which, in assay [1] (apparent Ki), the Ki amounted to 1.5 µM.
